Test results as given in ChEMBL document CHEMBL1909514, “Imidazo[2,1-b]thiazole guanylhydrazones as RSK2 inhibitors” (Eur J Med Chem, 2011).
Activity calls are given as the source filed them. The rule behind the calls is not given here.

What was measured:
MDA-MB-231 = assay: Growth inhibition of human MDA-MB-231 cells after 48 hrs by SRB assay; assay type: functional; settings: MDA-MB-231, 48 h
SNB-19 = assay: Growth inhibition of human SNB19 cells after 48 hrs by SRB assay; assay type: functional; settings: SNB-19, 48 h
SK-MEL-5 = assay: Growth inhibition of human SK-MEL-5 cells after 48 hrs by SRB assay; assay type: functional; settings: SK-MEL-5, 48 h
LOX IMVI = assay: Growth inhibition of human LOXIMVI cells after 48 hrs by SRB assay; assay type: functional
[1] = molecular target: T1, Serine/threonine-protein kinase Chk2 (Homo sapiens, UniProt O96017)
T1 sequence (O96017 whole entry): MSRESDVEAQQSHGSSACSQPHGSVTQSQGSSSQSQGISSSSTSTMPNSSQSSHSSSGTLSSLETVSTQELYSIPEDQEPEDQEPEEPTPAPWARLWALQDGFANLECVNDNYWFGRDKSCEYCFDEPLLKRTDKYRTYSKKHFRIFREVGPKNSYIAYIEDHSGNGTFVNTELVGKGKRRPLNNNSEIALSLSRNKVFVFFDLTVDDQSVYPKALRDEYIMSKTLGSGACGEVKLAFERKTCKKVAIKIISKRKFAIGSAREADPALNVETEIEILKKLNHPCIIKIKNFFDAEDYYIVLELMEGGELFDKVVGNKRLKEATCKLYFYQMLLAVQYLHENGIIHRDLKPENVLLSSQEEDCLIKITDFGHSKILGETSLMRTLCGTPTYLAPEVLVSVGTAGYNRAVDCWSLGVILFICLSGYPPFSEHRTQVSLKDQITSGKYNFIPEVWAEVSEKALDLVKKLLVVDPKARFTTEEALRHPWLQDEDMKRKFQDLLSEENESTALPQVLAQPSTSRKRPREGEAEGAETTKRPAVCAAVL

SF-268 = assay: Growth inhibition of human SF268 cells after 48 hrs by SRB assay; assay type: functional; settings: SF-268, 48 h
[2] = molecular target: T2, Aurora kinase A (Homo sapiens) (UniProt O14965); assay: Inhibition of Aurora kinase A assessed as inhibition of substrate phosphorylation using fluorescent peptide substrate up to 100 uM by microplate reader assay
T2 sequence (whole entry): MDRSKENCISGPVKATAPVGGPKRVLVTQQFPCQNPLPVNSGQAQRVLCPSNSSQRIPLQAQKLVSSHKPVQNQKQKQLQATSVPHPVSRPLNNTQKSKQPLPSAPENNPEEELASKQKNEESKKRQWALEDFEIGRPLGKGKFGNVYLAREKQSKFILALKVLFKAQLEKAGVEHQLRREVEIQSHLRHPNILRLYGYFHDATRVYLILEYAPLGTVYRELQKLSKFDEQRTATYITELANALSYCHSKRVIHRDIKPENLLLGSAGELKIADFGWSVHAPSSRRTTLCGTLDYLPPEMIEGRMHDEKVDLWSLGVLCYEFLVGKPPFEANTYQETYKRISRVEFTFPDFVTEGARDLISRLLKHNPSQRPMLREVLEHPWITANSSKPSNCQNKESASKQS

[3] = molecular target: T1, Serine/threonine-protein kinase Chk2; remark: listed apart in the source
Description: Inhibition of CHK2 assessed as inhibition of substrate phosphorylation using fluorescent peptide substrate by microplate reader assay

ACHN = assay: Growth inhibition of human ACHN cells after 48 hrs by SRB assay; assay type: functional
UACC-62 = assay: Growth inhibition of human UACC62 cells after 48 hrs by SRB assay; assay type: functional; settings: UACC-62, 48 h
SK-OV-3 = assay: Growth inhibition of human SKOV3 cells after 48 hrs by SRB assay; assay type: functional; settings: SK-OV-3, 48 h
A498 = assay: Growth inhibition of human A498 cells after 48 hrs by SRB assay; assay type: functional; settings: A498, 48 h
HT-29 = assay: Growth inhibition of human HT-29 cells after 48 hrs by SRB assay; assay type: functional; settings: HT-29, 48 h
HCC 2998 = assay: Growth inhibition of human HCC2998 cells after 48 hrs by SRB assay; assay type: functional; settings: HCC 2998, 48 h
HOP-92 = assay: Growth inhibition of human HOP92 cells after 48 hrs by SRB assay; assay type: functional; settings: HOP-92, 48 h
NCI-H322M = assay: Growth inhibition of human NCI-H322M cells after 48 hrs by SRB assay; assay type: functional
Aurora kinase A = Aurora kinase A (Homo sapiens, UniProt O14965)
U-251 = assay: Growth inhibition of human U251 cells after 48 hrs by SRB assay; assay type: functional; settings: U-251, 48 h
[4] = Growth inhibition of human OVCAR1 cells after 48 hrs by SRB assay; assay type: functional; settings: OVCAR1, 48 h
SN12C = assay: Growth inhibition of human SN12C cells after 48 hrs by SRB assay; assay type: functional
SF-295 = assay: Growth inhibition of human SF295 cells after 48 hrs by SRB assay; assay type: functional; settings: SF-295, 48 h
NCI-H460 = assay: Growth inhibition of human NCI-H460 cells after 48 hrs by SRB assay; assay type: functional; settings: NCI-H460, 48 h
NCI-H226 = assay: Growth inhibition of human NCI-H226 cells after 48 hrs by SRB assay; assay type: functional; settings: NCI-H226, 48 h
SF-539 = assay: Growth inhibition of human SF539 cells after 48 hrs by SRB assay; assay type: functional; settings: SF-539, 48 h
MDA-MB-468 = assay: Growth inhibition of human MDA-MB-468 cells after 48 hrs by SRB assay; assay type: functional; settings: MDA-MB-468, 48 h
[5] = molecular target: Ribosomal protein S6 kinase alpha-1 (Homo sapiens, UniProt Q15418)
Sequence of Ribosomal protein S6 kinase alpha-1 (Q15418 whole entry): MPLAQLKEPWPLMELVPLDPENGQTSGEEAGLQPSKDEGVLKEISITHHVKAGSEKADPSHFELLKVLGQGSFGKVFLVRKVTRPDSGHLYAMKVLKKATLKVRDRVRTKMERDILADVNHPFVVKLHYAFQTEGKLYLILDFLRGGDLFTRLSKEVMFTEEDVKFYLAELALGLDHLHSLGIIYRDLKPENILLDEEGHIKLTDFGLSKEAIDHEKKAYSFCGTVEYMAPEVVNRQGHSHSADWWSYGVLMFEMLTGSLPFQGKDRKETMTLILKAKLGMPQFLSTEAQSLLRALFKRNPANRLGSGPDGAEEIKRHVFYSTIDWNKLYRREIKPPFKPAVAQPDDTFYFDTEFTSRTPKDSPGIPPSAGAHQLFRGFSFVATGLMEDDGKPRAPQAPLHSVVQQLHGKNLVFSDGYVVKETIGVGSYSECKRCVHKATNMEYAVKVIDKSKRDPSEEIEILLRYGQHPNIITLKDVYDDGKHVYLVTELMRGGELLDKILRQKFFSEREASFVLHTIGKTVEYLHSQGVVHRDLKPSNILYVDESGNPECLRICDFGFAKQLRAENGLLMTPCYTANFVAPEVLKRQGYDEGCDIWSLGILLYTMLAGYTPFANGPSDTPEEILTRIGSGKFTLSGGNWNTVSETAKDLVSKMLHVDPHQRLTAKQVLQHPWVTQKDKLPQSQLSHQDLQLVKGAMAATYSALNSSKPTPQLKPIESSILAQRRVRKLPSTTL

RPMI-8226 = assay: Growth inhibition of human RPMI8226 cells after 48 hrs by SRB assay; assay type: functional; settings: RPMI-8226, 48 h
Malme-3M = assay: Growth inhibition of human MALME-3M cells after 48 hrs by SRB assay; assay type: functional
786-0 = assay: Growth inhibition of human 786-0 cells after 48 hrs by SRB assay; assay type: functional; settings: 786-0, 48 h
CAKI-1 = assay: Growth inhibition of human Caki1 cells after 48 hrs by SRB assay; assay type: functional; settings: CAKI-1, 48 h
BT-549 = assay: Growth inhibition of human BT549 cells after 48 hrs by SRB assay; assay type: functional; settings: BT-549, 48 h
[6] = read-out: pLC50 (the source's name) (converted)

N=C(N)N/N=C\c1c(-c2ccc([N+](=O)[O-])cc2)nc2sc(Br)cn12
GI50 (MDA-MB-231): 275 nM | CC50 (MDA-MB-231; [6]): 3890 nM | TGI (MDA-MB-231; read-out: pTGI (converted)): 851 nM | GI50 (SNB-19): 380 nM | CC50 (SNB-19; [6]): 5010 nM | TGI (SNB-19; read-out: pTGI (converted)): 4790 nM | GI50 (SK-MEL-5): 490 nM | CC50 (SK-MEL-5; [6]): 5370 nM | TGI (SK-MEL-5; read-out: pTGI (converted)): 1950 nM | GI50 (LOX IMVI): 191 nM | TGI (LOX IMVI; read-out: pTGI (converted)): 417 nM | IC50 [1]: 1960 nM | GI50 (SF-268): 219 nM | TGI (SF-268; read-out: pTGI (converted)): 447 nM | inhibition [2]: inactive | IC50 [3]: 88500 nM | GI50 (ACHN): 295 nM | CC50 (ACHN; [6]): 5370 nM | TGI (ACHN; read-out: pTGI (converted)): 871 nM | GI50 (UACC-62): 347 nM | CC50 (UACC-62; [6]): 4570 nM | TGI (UACC-62; read-out: pTGI (converted)): 4470 nM | GI50 (SK-OV-3): 148 nM | CC50 (SK-OV-3; [6]): 5620 nM | TGI (SK-OV-3; read-out: pTGI (converted)): 4470 nM | GI50 (A498): 1580 nM | CC50 (A498; [6]): 6030 nM | TGI (A498; read-out: pTGI (converted)): 3090 nM | GI50 (HT-29): 178 nM | CC50 (HT-29; [6]): 646 nM | TGI (HT-29; read-out: pTGI (converted)): 339 nM | GI50 (HCC 2998): 234 nM | CC50 (HCC 2998; [6]): 2340 nM | TGI (HCC 2998; read-out: pTGI (converted)): 646 nM | GI50 (HOP-92): 676 nM | CC50 (HOP-92; [6]): 5130 nM | TGI (HOP-92; read-out: pTGI (converted)): 2630 nM | GI50 (NCI-H322M): 309 nM | CC50 (NCI-H322M; [6]): 3980 nM | TGI (NCI-H322M; read-out: pTGI (converted)): 4170 nM | IC50 (Aurora kinase A): > 20000 nM | GI50 (U-251): 195 nM | CC50 (U-251; [6]): > 100000 nM | GI50 [4]: 186 nM | CC50 [4, 6]: 661 nM | TGI ([4]; read-out: pTGI (converted)): 347 nM | GI50 (SN12C): 617 nM | CC50 (SN12C; [6]): 5890 nM | TGI (SN12C; read-out: pTGI (converted)): 2820 nM | GI50 (SF-295): 575 nM | CC50 (SF-295; [6]): 6310 nM | TGI (SF-295; read-out: pTGI (converted)): 4470 nM | GI50 (NCI-H460): 229 nM | CC50 (NCI-H460; [6]): 1820 nM | TGI (NCI-H460; read-out: pTGI (converted)): 501 nM | GI50 (NCI-H226): 1860 nM | CC50 (NCI-H226; [6]): > 100000 nM | TGI (NCI-H226; read-out: pTGI (converted)): 4470 nM | GI50 (SF-539): 372 nM | CC50 (SF-539; [6]): 3720 nM | TGI (SF-539; read-out: pTGI (converted)): 1260 nM | GI50 (MDA-MB-468): 158 nM | CC50 (MDA-MB-468; [6]): 646 nM | TGI (MDA-MB-468; read-out: pTGI (converted)): 3240 nM | IC50 [5]: 1180 nM | GI50 (RPMI-8226): 178 nM | TGI (RPMI-8226; read-out: pTGI (converted)): 417 nM | GI50 (Malme-3M): 1000 nM | TGI (Malme-3M; read-out: pTGI (converted)): 4170 nM | GI50 (786-0): 174 nM | CC50 (786-0; [6]): 575 nM | TGI (786-0; read-out: pTGI (converted)): 316 nM | GI50 (CAKI-1): 234 nM | CC50 (CAKI-1; [6]): 4790 nM | TGI (CAKI-1; read-out: pTGI (converted)): 1070 nM | GI50 (BT-549): 186 nM | CC50 (BT-549; [6]): 7240 nM | TGI (BT-549; read-out: pTGI (converted)): 3630 nM
